Marks after values point to notes of the source that are not given here.
How the values were obtained:
[1] = Body weight, mean arterial pressure and heart rate of cholesterol-fed hamsters treated for 8 weeks; format: in vivo, hamster; conditions: at 8 weeks
Procedure: (§1) Male F1 hamsters were fed 0.3% cholesterol and 10% coconut oil.
(§2) Four sets of hamsters were established (n=12-13 per group). The groups were controls, pravastatin (34 mg/kg/day), captopril (100 mg/kg/day) and pravastatin plus captopril (32 and 100 mg/kg/day, respectively). All animals were fed the same atherogenic diet. Pravastatin was delivered via the diet and captopril was gavaged daily. Hamsters in the control and pravastatin groups were gavaged with water. The animals were treated for 8 weeks. At 3 and 6 weeks the animals were fasted overnight and bled to determine plasma cholesterols and triglycerides. At 8 weeks, mean arterial pressure and heart rate were measured and then the animals were fixed by perfusing formalin. The aortic arch was stained with oil red O and the total area of the fatty streak (which consists of macrophage-foam cells) was measured by computer assisted image analysis.

[2] = Plasma lipids of cholesterol-fed hamsters (control and treated); format: in vivo, hamster; conditions: mean ± SD, at 5 weeks, pravastatin 34 mg/kg/day, captopril 100 mg/kg/day, combination 33 + 100 mg/kg/day
Procedure: as §1
as §2, with “The groups were controls, pravastatin (34 mg/kg/day), captopril (100 mg/kg/day) and pravastatin plus captopril (32 and 100 mg/kg/day, respectively).” left out, “At 3 and 6 weeks the animals were fasted overnight and bled to determine plasma cholesterols and triglycerides.” left out

[3] = system: fatty streak (macrophage-foam cells) of the aortic arch; assay: Fatty streak area in the aortic arch (oil red O, image analysis) of cholesterol-fed hamsters; format: in vivo, hamster; conditions: 8 weeks; for Fatty Streak Area: mean ± SD, 6 arches per group, pravastatin 34 mg/kg/day, captopril 100 mg/kg/day, combination 33 + 100 mg/kg/day
Procedure: as §1
as §2, with “The groups were controls, pravastatin (34 mg/kg/day), captopril (100 mg/kg/day) and pravastatin plus captopril (32 and 100 mg/kg/day, respectively).” left out

[4] = Body weight, mean arterial pressure and heart rate of cholesterol-fed hamsters treated for 8 weeks; format: in vivo, hamster; conditions: mean ± SD, combination 33 + 100 mg/kg/day; for HR (Heart Rate) / MAP (Mean Arterial Pressure): at 8 weeks, pravastatin 34 mg/kg/day, captopril 100 mg/kg/day; for Body Weight: hamsters on atherogenic diet, 8 weeks, pravastatin 34 mg/kg/day (diet), captopril 100 mg/kg/day (gavage)
[5] = hypercholesterolemic patients; cited from earlier work

Compound	heart rate less than control hamsters ([1]; compared with control hamsters) [%]	mean arterial pressure lower than controls ([1]; compared with control hamsters) [%]	HDL-C [2]	TC [2]	TG [2]	VLDL + LDL-C [2]	reduction of fatty streak (lesion) area compared to control group [3]	Fatty Streak Area [3]	HR (Heart Rate) [4]	MAP (Mean Arterial Pressure) [4]	Body Weight [4] [g]	change of serum cholesterol [5] [%]	increase of HDL [5] [%]	effect on blood pressure ([1]; 34 mg/kg/day)	effect on heart rate ([1]; 34 mg/kg/day)
C[C@H](CS)C(=O)N1CCC[C@H]1C(=O)O [Captopril, 1-[(2S)-3-mercapto-2-methylpropionyl]-L-proline]	7	21	72 ± 23 mg/dL	660 ± 94 mg/dL	1105 ± 259 mg/dL	588 ± 83 mg/dL	approximately 50%	245 ± 154^c μm^2 × 10^3	348 ± 22^a beats/min.	110 ± 17^a mmHg	133 ± 12	−18	27		
CC[C@H](C)C(=O)O[C@H]1C[C@H](O)C=C2C=C[C@H](C)[C@H](CC[C@@H](O)C[C@@H](O)CC(=O)O)[C@H]21 [Pravastatin, pravastatin]			117 ± 7^a mg/dl	456 ± 107^a mg/dl	185 ± 34^a mg/dl	339 ± 93^a mg/dl	approximately 50%	248 ± 119^b μm^2 × 10^3	355 ± 27 beats/min.	138 ± 13 mmHg	139 ± 8			no effect	no effect
